Assay results published in patent US20070105810A1, “THERAPEUTICS” (priority 2003, published 2007).
“Also recorded” adds a separate entry of the source. Where two headings read alike, the source gives them in different places.

Key:
[1] = test system: myelin-basic protein (MBP) specific, CD4-positive rat T cells; experiment: In vitro proliferation assay (rat encephalitogenic T cells); format: cell-based; conditions: for IC50: Rattus norvegicus, CD4 positive, 3H-thymidine incorporation; for proliferation: T-lymphocytes, summary statement
Description: A more downstream event of T cell activation was analyzed in myelin-basic protein (MBP) specific, CD4-positive rat T cells. These cells can be driven into proliferation by MBP presented by irradiated thymocytes or by the mitogen concanavalin A (ConA).
Resting MBP-GFP T cells were plated in 96-wells (5×10^4 well) and stimulated by the addition of thymocytes (1.5×10^6/well) and MBP ([…]) or ConA (1.25 μg/ml), respectively.
After 2 days 3H-thymidine (Amersham Biosciences) was added to the activated cells (final concentration 4 μCi/ml); after 16 h of incubation 3H-thymidine incorporation was measured (Matrix 9600-Direct Beta Counter Packad).
Cells were stimulated in presence of MBP-pulsed irradiated APCs and increasing concentrations of BZ194. After 48 h cells were collected for cytofluorometric cell count A and RNA extraction was performed for quantitative PCR analysis (IL2) B. Effect of BZ194 on pre-activated T cell blasts C. Amplification of MBP-specific T cells which had been incubated before in the presence of DMSO or 0.5 mM or 1 mM BZ194 D.
TMBP-GFP cells were co-cultured for 48 h in 96well plates (in DMEM 1% rat serum) with APCs in presence of specific antigen ([…]) or without. Amplification of TMBP-GFP cells was measured by cytofluorometry as described (Kawakami et al. 2005, J.I.). Their numbers were determined in relation to a known absolute number of added phycoerythrin-labeled plastic beads (Becton-Dickinson). The amplification rate was calculated in relation to the GFP+T cell numbers at day 0. Alternatively, [^3H]dT (2 Ci/mmol; Amersham-Buchler) incorporation was used to evaluate proliferation. The radioactive label present in the different cultures was determined as described (Flügel et al., 2001, Immunity)

[2] = test system: TMBP-GFP cells; experiment: Intravital videomicroscopy: motility of TMBP-GFP cells in the spleen; format: in vivo, rat; conditions: 3 d after T cell transfer, 6.5 μm/min in DMSO-treated controls, preliminary
Description: Intravital videomicroscopy of the spleen of vehicle (DMSO, left) A or BZ194 B-treated animals 3 d after T cell transfer. The ratio between stationary and motile MBP-specific GFP T cells (upper graphs) and cell trajectories (lower graphs, 10 min analysis) are shown. Stationary cells are defined as cells moving less than 10 μm in 10 minutes.
Animals were anesthetized by intraperitoneal injection of xylazine/ketamine (10 mg/kg and 50 mg/kg, respectively), with reapplied doses (1 mg/kg xylazine/5 mg/kg ketamine) administered as required. Adequate oxygenation was ensured by an oxygen (95% O2/5% CO2) mask fixed on the animal's snout. Body temperature was controlled by a heated pad. For spleen imaging temperature and moistness controlled chambers were constructed for inverted microscope settings. Surgically exposed spleens with intact vasculature were carefully placed into the chambers superfused with carbogenated HBSS (95% O25% CO2).
Time-lapse recordings were performed using an inverted microscope (Zeiss, Axiovert 200M) equipped with a 20×, 0.4 NA objective (Zeiss). Images were acquired using a Coolsnap-HQ camera (Photometrics, Roper Scientific, Tuscon, Ariz.) in 30 s time intervals and processed by MetaMorph (Visitron Systems, Puchheim, Germany). Image J software (freeware, provided by Wayne Rasband, NIH) was used to evaluate cell trajectories and velocity.

[3] = test system: T cell receptor/CD3 complex mediated Ca2+ signalling; experiment: T cell receptor/CD3 complex mediated Ca2+ signalling in human T cells; format: cell-based
Description: Intact Jurkat T-lymphocytes were loaded with fura2/AM. Ratiometric determination of [Ca^2+]i was carried out in cell suspension in a Hitachi F2000 fluorometer at room temperature at excitation wavelengths of 340 and 380 nm (alternating) and an emission wavelength of 495 nm. Each experiment was calibrated by addition of Triton X100 (10% v/v final concentration) to obtain the maximal ratio and subsequent addition of 4 mM EGTA/40 mM Tris-base to obtain the minimal ratio.
[Ca^2+]i was measured by using the fluorescent indicator Fura2/AM. In brief, 10^7 cells were loaded with Fura2/AM, and fluorescence was determined in batches of 1.5×10^6 cells with an Hitachi F-2000 fluorimeter at excitation and emission wavelengths of 340 and 380 nm (exc.) and 505 nm (em.), respectively. Measurements were carried out at 20° C. At the end of each single measurement maximal and minimal ratios were determined by addition of Triton X-100 and EGTA/Tris.

[4] = test system: OVA-specific T cells; experiment: Proliferation of cultured OVA-specific T cells; format: cell-based
[5] = Tolerability of intraperitoneal injection in Lewis rats; format: in vivo
From the text: Limited solubility of BZ194 excluded intravenous application due to embolic complications.

[6] = Solubility; format: physicochemical; conditions: excluded intravenous application

Compound: CCCCN(CCCC)C(=O)C[n+]1cccc(C(=O)O)c1 [BZ52, 3-Carboxy-1-dibutylcarbamoylmethyl-pyridinium]
- IC50 ([1]; light or radiation study, MBP presented by irradiated thymocytes, read-out: IC50, MBP mediated proliferation): ~500 µM
- IC50 ([1]; ConA 1.25 μg/ml, read-out: IC50, ConA mediated proliferation): ~100 µM
- proliferation [1]: efficiently inhibited

Compound: CCCCCCCCNC(=O)C[n+]1cccc(C(=O)O)c1.[Br-] [BZ194, 3-Carboxy-1-Octylcarbamoylmethyl-Pyridinium]
- average velocity of TMBP-GFP cells [2]: 3.5 μm/min
- T cell proliferation ([1]; MBP-pulsed irradiated APCs, increasing concentrations of BZ194, 48 h): anti-proliferative effect; also recorded: dose dependently suppressed
- proliferation [1]: efficiently inhibited
- proliferative response towards MBP challenge ([1]; after foregoing incubation with 0.5 mM or 1 mM BZ194): did not block
- viability and reactivity of TMBP-GFP cells ([1]; cells isolated ex vivo from BZ194-treated animals, challenge with MBP (not shown)): remained viable and fully reactive
- TCR/CD3 complex mediated Ca2+ signalling [3]: partially blocked
- proliferation [4]: anti-proliferative effect
- adverse effect ([5]; higher amounts of BZ194 i.p.): occasionally induced peritonitis
- tolerability (inspection, weight development, immune cell count) ([5]; i.p., solubilized in DMSO, 180 mg/kg, 5 days): well tolerated
- solubility [6]: Limited
